# Measured values as given in ChEMBL document CHEMBL4011594, “Discovery and optimization of 2-pyridinone aminal integrase strand transfer inhibitors for the treatment of HIV” (Bioorg Med Chem Lett, 2017).
# What was measured:
# [1] = system: Human immunodeficiency virus type 1 integrase (Human immunodeficiency virus 1), Q7ZJM1 [N155H]; assay: Inhibition of HIV-1 integrase N155H mutant strand transfer activity assessed as reduction viral replication
# [2] = system: Human immunodeficiency virus type 1 integrase (Human immunodeficiency virus 1), Q7ZJM1 [G140S,Q148H]; assay: Inhibition of HIV-1 integrase G140S/Q148H double mutant strand transfer activity assessed as reduction in viral replication
# [3] = system: Human immunodeficiency virus type 1 integrase (Human immunodeficiency virus 1), Q7ZJM1 [Q148K]; assay: Inhibition of HIV-1 integrase Q148K mutant strand transfer activity assessed as reduction in viral replication
# [4] = Half life in Beagle dog at 0.5 mg/kg, iv or 1 mg/kg, po; format: ADME, organism-based, Canis lupus familiaris; settings: in vivo
# [5] = Aqueous solubility of the compound at pH 2; format: physicochemical
# [6] = system: Human immunodeficiency virus type 1 integrase (Human immunodeficiency virus 1), Q7ZJM1 [E92Q]; assay: Inhibition of HIV-1 integrase E92Q mutant strand transfer activity assessed as reduction in viral replication
# [7] = system: Human immunodeficiency virus 1; assay: Inhibition of wild-type HIV-1 integrase strand transfer activity assessed as reduction in viral replication in presence of 10% normal human serum
# [8] = system: Human immunodeficiency virus type 1 integrase (Human immunodeficiency virus 1), Q7ZJM1 [Q148R]; assay: Inhibition of HIV-1 integrase Q148R mutant strand transfer activity assessed as reduction in viral replication
# [9] = system: Human immunodeficiency virus 1; assay: Inhibition of HIV-1 integrase strand transfer activity assessed as reduction in viral replication in presence of 50% normal human serum
# [10] = Oral bioavailability in Beagle dog at 1 mg/kg; format: ADME, organism-based, Canis lupus familiaris; settings: in vivo
# [11] = Plasma protein binding in Beagle dog; format: ADME, cell-free, Canis lupus familiaris; settings: read-out: PPB (converted)
# [12] = Aqueous solubility of the compound at pH 7; format: physicochemical
# [13] = system: Human immunodeficiency virus type 1 integrase (Human immunodeficiency virus 1), Q7ZJM1 [Y143R]; assay: Inhibition of HIV-1 integrase Y143R mutant strand transfer activity assessed as reduction in viral replication
# [14] = Volume of distribution in Beagle dog at 0.5 mg/kg, iv or 1 mg/kg, po; format: ADME, organism-based, Canis lupus familiaris; settings: in vivo
# [15] = Apparent permeability of the compound; format: physicochemical; settings: not told
# [16] = Clearance in Beagle dog at 0.5 mg/kg, iv or 1 mg/kg, po; format: ADME, organism-based, Canis lupus familiaris; settings: in vivo
smiles,measurement,setting,value
N#Cc1cccc2c1[C@]1(CC2)NC(=O)c2c3c(c(O)c(=O)n21)C(=O)N(Cc1ccc(F)c(Cl)c1)CC3,IP,[1],13 nM
same,IP,[2],18 nM
same,IP,[3],9 nM
same,half-life,[4],10.6 h
same,solubility,[5],8 µM
same,IP,[6],18 nM
same,IP,[7],4 nM
same,IP,[8],7 nM
same,IP,[9],18 nM
same,bioavailability,[10],40%
same,fraction unbound,[11],0.028
same,solubility,[12],10 µM
same,IP,[13],4 nM
same,Vd,[14],0.9 L/kg
same,Papp,[15],7 ×10⁻⁶ cm/s
same,clearance,[16],2.4 mL/min/kg
